Drawing on ChEMBL document CHEMBL1158420, “Synthesis, spectral, crystal and antimicrobial studies of biologically potent oxime ethers of nitrogen, oxygen and sulfur heterocycles” (2009), this text covers Ratio and MIC for nine molecules.

Broadly, the MIC is the least concentration at which growth counts as inhibited.

The test system of assay [1] is Pseudomonas aeruginosa. The experiment in a line: Ratio of MIC for drug to MIC for Ciprofloxacin against Pseudomonas aeruginosa. It is filed as functional.
Assay [2] relates to Salmonella enterica subsp. enterica. The experiment in a line: Ratio of MIC for drug to MIC for Ciprofloxacin against Salmonella typhi. It is filed as functional, Salmonella enterica subsp. enterica serovar Typhi.
Assay [3] relates to Aspergillus niger. The experiment in a line: Antifungal activity against Aspergillus niger by twofold dilution method. It is filed as functional.
In assay [4] the test system is Salmonella enterica subsp. enterica. The experiment in a line: Antibacterial activity against Salmonella typhi by twofold dilution method. It is filed as functional, Salmonella enterica subsp. enterica serovar Typhi.
The test system of assay [5] is Candida albicans. The experiment in a line: Antifungal activity against Candida albicans by twofold dilution method. The assay is classed as functional.
Assay [6] has as its system Aspergillus flavus. Nature of the assay: Antifungal activity against Aspergillus flavus by twofold dilution method. It is filed as functional.
Assay [7] has as its system Rhizopus. Nature of the assay: Antifungal activity against Rhizopus sp. by twofold dilution method. It is filed as functional.
Assay [8] deals with Pseudomonas aeruginosa. Nature of the assay: Antibacterial activity against Pseudomonas aeruginosa by twofold dilution method. The assay is classed as functional.
The test system of assay [9] is Escherichia coli. The experiment in a line: Antibacterial activity against Escherichia coli by twofold dilution method. It is filed as functional.
Assay [10] concerns Staphylococcus aureus. Nature of the assay: Antibacterial activity against Staphylococcus aureus by twofold dilution method. The assay is classed as functional.
Assay [11] has as its system Cryptococcus neoformans. Nature of the assay: Antifungal activity against Cryptococcus neoformans by twofold dilution method. The assay is classed as functional.
The subject of assay [12] is Staphylococcus aureus. The experiment in a line: Ratio of MIC for drug to MIC for Ciprofloxacin against Staphylococcus aureus. The assay is classed as functional.
In assay [13] the test system is Escherichia coli. Nature of the assay: Ratio of MIC for drug to MIC for Ciprofloxacin against Escherichia coli. The assay is classed as functional.
The subject of assay [14] is Candida. The experiment in a line: Antifungal activity against Candida 51 by twofold dilution method. The assay is classed as functional.
The test system of assay [15] is Aspergillus niger. The experiment in a line: Ratio of MIC for drug to MIC for Amphotericin B against Aspergillus niger. It is filed as functional.
Assay [16] concerns Aspergillus flavus. Nature of the assay: Ratio of MIC for drug to MIC for Amphotericin B against Aspergillus flavus. The assay is classed as functional.
For assay [17], the system named is Candida albicans. Nature of the assay: Ratio of MIC for drug to MIC for Amphotericin B against Candida albicans. The assay is classed as functional.
Assay [18] has as its system Cryptococcus neoformans. Nature of the assay: Ratio of MIC for drug to MIC for Amphotericin B against Cryptococcus neoformans. The assay is classed as functional.
The subject of assay [19] is Rhizopus. Nature of the assay: Ratio of MIC for drug to MIC for Amphotericin B against Rhizopus sp. It is filed as functional.
[20] abbreviates: Aspergillus niger, read-out: MIC.
[21] abbreviates: Salmonella enterica, read-out: MIC.
Setting [22] is: Candida albicans, read-out: MIC.
Where [23] appears, read: Aspergillus flavus, read-out: MIC.
Setting [24] is: Pseudomonas aeruginosa, read-out: MIC.
The mark [25] stands for this setting: Escherichia coli, read-out: MIC.
The mark [26] stands for this setting: Staphylococcus aureus, read-out: MIC.
Setting [27] is: Cryptococcus neoformans, read-out: MIC.

Each structure is given as a SMILES string. ≈ marks a conversion by molar mass, not a printed value.

`CC1C(=NOCc2ccccc2)C(C)C(c2ccc(Cl)cc2)NC1c1ccc(Cl)cc1` (stereo not given): the Ratio is 4 in assay [1], 2 in assay [2], 2 in [12] and 2 in assay [13]. Also, the MIC stood at 25 µg/mL (≈ 55.1 µM) in [3] (setting [20]); 25 µg/mL (≈ 55.1 µM) in assay [4] (setting [21]); 25 µg/mL (≈ 55.1 µM) in assay [5] (setting [22]); 25 µg/mL (≈ 55.1 µM) in assay [6] (setting [23]); 50 µg/mL (≈ 110 µM) in assay [7] (Rhizopus, read-out: MIC); 6.25 µg/mL (≈ 13.8 µM) in [8] (setting [24]). Besides, the MIC in assay [9] (setting [25]) was 12.5 µg/mL (≈ 27.6 µM); in [10] (setting [26]), 6.25 µg/mL (≈ 13.8 µM); in assay [11] (setting [27]) it was 25 µg/mL (≈ 55.1 µM); in [14] (Candida, 51, read-out: MIC), 25 µg/mL (≈ 55.1 µM).
As to `Cc1ccc([C@@H]2C/C(=N/OCc3ccccc3)C[C@H](c3ccc(C)cc3)S2)cc1`, the Ratio in assay [2] and in assay [12] was 2 throughout. Besides, the MIC in assay [3] (setting [20]) worked out at 50 µg/mL (≈ 125 µM); in assay [4] (setting [21]), 25 µg/mL (≈ 62.3 µM); in assay [5] (setting [22]) it was 100 µg/mL (≈ 249 µM); in assay [6] (setting [23]), 100 µg/mL (≈ 249 µM); in assay [7] (Rhizopus, read-out: MIC) it was 50 µg/mL (≈ 125 µM); in assay [8] (setting [24]), 25 µg/mL (≈ 62.3 µM). Also, the MIC in [9] (setting [25]) turned out to be 50 µg/mL (≈ 125 µM); in assay [10] (setting [26]), 12.5 µg/mL (≈ 31.1 µM); in [11] (setting [27]) it was 200 µg/mL (≈ 498 µM); in assay [14] (Candida, 51, read-out: MIC), 100 µg/mL (≈ 249 µM).
As to `Cc1ccc(C2NC(c3ccc(C)cc3)C(C)C(=NOCc3ccccc3)C2C)cc1` (stereo not given), the Ratio in assay [1] is on record as 4; in assay [15] it was 2; in [16], 2; in assay [17] it was 2; in assay [18] it was 2; in assay [19], 2. The Ratio in assay [13] is reported as 4. Besides, the MIC in assay [3] (setting [20]) turned out to be 50 µg/mL (≈ 121 µM); in assay [4] (setting [21]), 50 µg/mL (≈ 121 µM); in assay [5] (setting [22]) it was 50 µg/mL (≈ 121 µM); in assay [6] (setting [23]) it was 25 µg/mL (≈ 60.6 µM); in assay [7] (Rhizopus, read-out: MIC), 12.5 µg/mL (≈ 30.3 µM); in assay [8] (setting [24]), 25 µg/mL (≈ 60.6 µM). For the same molecule, the MIC in assay [9] (setting [25]) worked out at 12.5 µg/mL (≈ 30.3 µM); in assay [10] (setting [26]), 6.25 µg/mL (≈ 15.1 µM); in [11] (setting [27]), 50 µg/mL (≈ 121 µM); in [14] (Candida, 51, read-out: MIC), 6.25 µg/mL (≈ 15.1 µM).
Turning to `Cc1ccc([C@@H]2CC(=NOCc3ccccc3)C[C@@H](c3ccc(C)cc3)S2)cc1` (relative stereo), the MIC in assay [3] (setting [20]) stood at 100 µg/mL (≈ 249 µM); in assay [4] (setting [21]) it was 100 µg/mL (≈ 249 µM); in assay [5] (setting [22]), 50 µg/mL (≈ 125 µM); in [6] (setting [23]), 100 µg/mL (≈ 249 µM); in [7] (Rhizopus, read-out: MIC), 50 µg/mL (≈ 125 µM); in assay [8] (setting [24]) it was 100 µg/mL (≈ 249 µM). The MIC in assay [9] (setting [25]) was found to be 50 µg/mL (≈ 125 µM); in [10] (setting [26]), 100 µg/mL (≈ 249 µM); in assay [11] (setting [27]), 50 µg/mL (≈ 125 µM); in assay [14] (Candida, 51, read-out: MIC), 200 µg/mL (≈ 498 µM).
As for `CC1C(=NOCc2ccccc2)C(C)C(c2ccccc2)NC1c1ccccc1` (stereo in doubt; 5f1), the minimum inhibitory concentration (MIC) in assay [3] (setting [20]) stood at 100 µg/mL (≈ 260 µM); in [4] (setting [21]), 100 µg/mL (≈ 260 µM); in assay [5] (setting [22]), 50 µg/mL (≈ 130 µM); in assay [6] (setting [23]), 200 µg/mL (≈ 520 µM); in assay [7] (Rhizopus, read-out: MIC), 100 µg/mL (≈ 260 µM); in [8], 50 µg/mL (≈ 130 µM). For the same molecule, the MIC came to 50 µg/mL (≈ 130 µM) in assay [9] (setting [25]); 200 µg/mL (≈ 520 µM) in [10] (setting [26]); 100 µg/mL (≈ 260 µM) in assay [11] (setting [27]); 50 µg/mL (≈ 130 µM) in [14] (Candida, 51, read-out: MIC).
`CC1C(=NOCc2ccccc2)C(C)C(c2ccccc2)NC1c1ccccc1` (stereo in doubt; 5f2): the MIC is 100 µg/mL (≈ 260 µM) in [3]; 100 µg/mL (≈ 260 µM) in [4]; 100 µg/mL (≈ 260 µM) in assay [5]; >200 µg/mL in [6]; 50 µg/mL (≈ 130 µM) in assay [7]; 200 µg/mL (≈ 520 µM) in [8]. Besides, the MIC worked out at 100 µg/mL (≈ 260 µM) in [9], 100 µg/mL (≈ 260 µM) in [10], 200 µg/mL (≈ 520 µM) in assay [11] and 100 µg/mL (≈ 260 µM) in assay [14].
`CC1C(=NOCc2ccccc2)C(C)C(c2ccc(Cl)cc2)OC1c1ccc(Cl)cc1` (stereo in doubt; 7c1): the MIC in assay [3] (setting [20]) stood at 100 µg/mL (≈ 220 µM); in [4] (setting [21]), 50 µg/mL (≈ 110 µM); in assay [5] it was 50 µg/mL (≈ 110 µM); in [6] (setting [23]), 50 µg/mL (≈ 110 µM); in [7] (Rhizopus, read-out: MIC), 50 µg/mL (≈ 110 µM); in assay [8] (setting [24]), 25 µg/mL (≈ 55 µM). Further, the MIC in [9] (setting [25]) turned out to be 50 µg/mL (≈ 110 µM); in assay [10] (setting [26]), 50 µg/mL (≈ 110 µM); in [11] (setting [27]), 25 µg/mL (≈ 55 µM); in assay [14] (Candida, 51, read-out: MIC), 50 µg/mL (≈ 110 µM).
Consider `CC1C(=NOCc2ccccc2)C(C)C(c2ccc(Cl)cc2)OC1c1ccc(Cl)cc1` (stereo in doubt; 7c2), for which the MIC is 50 µg/mL (≈ 110 µM) in assay [3]; 100 µg/mL (≈ 220 µM) in assay [4]; 12.5 µg/mL (≈ 27.5 µM) in [5]; 25 µg/mL (≈ 55 µM) in [6]; 25 µg/mL (≈ 55 µM) in assay [7]; 50 µg/mL (≈ 110 µM) in assay [8]. Besides, the MIC is 50 µg/mL (≈ 110 µM) in [9], 50 µg/mL (≈ 110 µM) in assay [10], 12.5 µg/mL (≈ 27.5 µM) in assay [11] and 25 µg/mL (≈ 55 µM) in [14].
In the case of `Cc1ccc(C2OC(c3ccc(C)cc3)C(C)C(=NOCc3ccccc3)C2C)cc1` (stereo in doubt; 7d1), the Ratio in [2] and in [12] was 2 each time. Moreover, the MIC was determined as 50 µg/mL (≈ 121 µM) in [3] (setting [20]); 25 µg/mL (≈ 60.5 µM) in assay [4] (setting [21]); 25 µg/mL (≈ 60.5 µM) in assay [5]; 50 µg/mL (≈ 121 µM) in [6] (setting [23]); 50 µg/mL (≈ 121 µM) in assay [7] (Rhizopus, read-out: MIC); 12.5 µg/mL (≈ 30.2 µM) in assay [8] (setting [24]). Besides, the MIC is 25 µg/mL (≈ 60.5 µM) in assay [9] (setting [25]), 12.5 µg/mL (≈ 30.2 µM) in [10] (setting [26]), 50 µg/mL (≈ 121 µM) in assay [11] (setting [27]) and 50 µg/mL (≈ 121 µM) in assay [14].
